The assay deals with NP-1 (Homo sapiens, UniProt O14786). Nature of the assay: Biotinylated-VEGF-A165 (bt-VEGF-A165) binding to NP-1. The following applies: for inhibition at 3 µM: 3 μM compound, read-out: Screen (% inhibition at 3 μM); for inhibition at 30 µM: read-out: Screen (% inhibition at 30 μM). As for the experimental part:
Human prostate carcinoma DU145 cells were cultured in growth medium (RPMI 1640 containing 10% FBS and L-glutamine). DU145 cells were seeded at the density of 2×10^4 cells per well (96-well plates) in 0.1 ml growth medium and transfected with adenovirus vectors containing the full-length open-reading frame of human NP-1. The Ad.NP-1-transfected cells grew for 2 days prior to a binding assay.
Confluent Ad.NP-1-transfected cells in 96-well plates were washed twice with phosphate-buffered saline (PBS). The various concentrations of compounds diluted in binding medium (Dulbecco's modified Eagle's medium, 25 mM HEPES pH 7.3 containing 0.1% BSA) were added, followed by addition of 2 nM of bt-VEGF-A165. After 2 h of incubation at room temperature, the medium was aspirated and washed three times with PBS. The bound bt-VEGF-A165 to NP-1 was detected by streptavidin-horseradish peroxidase conjugates and the enzyme substrate, and measured using a Tecan Genios plate reader at A450 nm with a reference wavelength at A595 nm. Non-specific binding was determined in the presence of 100-fold excess unlabelled VEGF-A165.
The 96-well plates were pre-coated with NP1 protein at 3 μg/ml overnight at 4° C. On the following day, the plates were treated with blocking buffer (PBS containing 1% BSA) and washed three times with wash buffer (PBS containing 0.1% Tween-20). The various concentrations of compounds diluted in PBS containing 1% DMSO were added, followed by addition of 0.25 nM of bt-VEGF-A165. After 2 h of incubation at room temperature, the plates were washed three times with wash buffer. The bound bt-VEGF-A165 to NP-1 was detected by streptavidin-horseradish peroxidase conjugates and the enzyme substrate, and measured using a Tecan Genios plate reader at A450 nm with a reference wavelength at A595 nm. Nonspecific binding was determined in the absence of NP-1 coated wells of the plates.

SMILES strings stand for the structures.

NP-1, sequence (O14786 22-923): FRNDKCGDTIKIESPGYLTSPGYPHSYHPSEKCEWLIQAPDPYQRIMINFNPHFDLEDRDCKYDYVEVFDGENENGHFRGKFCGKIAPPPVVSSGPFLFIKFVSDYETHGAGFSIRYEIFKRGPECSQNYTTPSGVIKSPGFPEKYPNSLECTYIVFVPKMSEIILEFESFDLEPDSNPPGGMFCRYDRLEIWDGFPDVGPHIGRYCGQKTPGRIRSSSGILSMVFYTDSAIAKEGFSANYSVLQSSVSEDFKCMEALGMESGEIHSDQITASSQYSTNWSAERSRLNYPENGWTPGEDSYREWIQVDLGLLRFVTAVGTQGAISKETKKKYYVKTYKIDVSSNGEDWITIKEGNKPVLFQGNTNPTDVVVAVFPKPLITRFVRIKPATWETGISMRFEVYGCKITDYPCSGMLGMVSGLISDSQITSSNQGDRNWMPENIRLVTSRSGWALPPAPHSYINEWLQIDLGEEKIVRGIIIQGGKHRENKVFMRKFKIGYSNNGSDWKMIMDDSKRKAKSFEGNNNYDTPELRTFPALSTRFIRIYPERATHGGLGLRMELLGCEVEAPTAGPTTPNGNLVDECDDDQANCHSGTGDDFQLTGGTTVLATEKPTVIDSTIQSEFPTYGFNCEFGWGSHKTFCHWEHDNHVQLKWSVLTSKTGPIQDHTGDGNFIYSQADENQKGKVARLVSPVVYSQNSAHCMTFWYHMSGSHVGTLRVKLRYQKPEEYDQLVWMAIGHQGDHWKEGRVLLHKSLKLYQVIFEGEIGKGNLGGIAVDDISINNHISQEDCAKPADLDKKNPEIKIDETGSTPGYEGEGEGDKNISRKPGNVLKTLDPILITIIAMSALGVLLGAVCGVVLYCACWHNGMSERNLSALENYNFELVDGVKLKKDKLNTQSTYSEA

A word on the IC50: it is the concentration that gives 50% inhibition. High values mean weaker potency, low ones greater potency. Broadly, the inhibition is the change of the read-out against control, counted positive when it falls. As to `N=C(N)NCCC[C@H](NC(=O)c1sccc1NS(=O)(=O)c1cc(-c2ccccc2CN2CCC(C(=O)O)CC2)cc2c1OCC2)C(=O)O` [Compound 1, 1-(2-{7-[2-((S)-1-Carboxy-4-guanidino-butylcarbonyl)-thiophen-3-ylsulfamoyl]-2,3-dihydro-benzofuran-5-yl}-benzyl)-piperidine-4-carboxylic acid], the 50% inhibitory concentration (IC50) was found to be 7 nM and the inhibition at 3 µM was determined as 100%.
With `N=C(N)NCCC[C@H](NC(=O)c1sccc1NS(=O)(=O)c1cc(-c2ccccc2CN2CCC(CC(=O)O)CC2)cc2c1OCC2)C(=O)O` [Compound 2, (S)-2-[(3-{5-[2-(4-Carboxymethyl-piperidin-1-ylmethyl)-phenyl]-2,3-dihydro-benzofuran-7-sulfonylamino}-thiophene-2-carbonyl)-amino]-5-guanidino-pentanoic acid], the inhibition at 3 µM was 96%.
With `N=C(N)NCCC[C@H](NC(=O)c1sccc1NS(=O)(=O)c1cc(-c2cccc(CN3CCC(C(=O)O)CC3)c2)cc2c1OCC2)C(=O)O` [Compound 3, 1-(3-{7-[2-((S)-1-Carboxy-4-guanidino-butylcarbamoyl)-thiophen-3-ylsulfamoyl]-2,3-dihydro-benzofuran-5-yl}-benzyl)-piperidine-4-carboxylic acid], the IC50 amounted to 142 nM and the inhibition at 3 µM is 89%.
For `N=C(N)NCCC[C@H](NC(=O)c1sccc1NS(=O)(=O)c1cc(-c2cccc(CN3CCC(CC(=O)O)CC3)c2)cc2c1OCC2)C(=O)O` [Compound 4, (S)-2-[(3-{5-[3-(4-Carboxymethyl-piperidin-1-ylmethyl)-phenyl]-2,3-dihydro-benzofuran-7-sulfonylamino}-thiophene-2-carbonyl)-amino]-5-guanidino-pentanoic acid], in that order: 72 nM and 80%.
`COC(=O)C1CCN(Cc2ccccc2-c2cc3c(c(S(=O)(=O)Nc4ccsc4C(=O)N[C@@H](CCCNC(=N)N)C(=O)O)c2)OCC3)CC1` [Compound 5, 1-(2-{7-[2-((S)-1-Carboxy-4-guanidino-butylcarbamoyl)-thiophen-3-ylsulfamoyl]-2,3-dihydro-benzofuran-5-yl}-benzyl)-piperidine-4-carboxylic acid methyl ester]: the IC50 was 14 nM and the inhibition at 3 µM came to 92%. Besides, where the note is “30 μM compound”, the inhibition at 30 µM amounted to 100%.
As for `COC(=O)CC1CCN(Cc2ccccc2-c2cc3c(c(S(=O)(=O)Nc4ccsc4C(=O)N[C@@H](CCCNC(=N)N)C(=O)O)c2)OCC3)CC1` [Compound 6, (S)-5-Guanidino-2-[(3-{5-[2-(4-methoxycarbonylmethyl-piperidin-1-ylmethyl)-phenyl]-2,3-dihydro-benzofuran-7-sulfonylamino}-thiophene-2-carbonyl)-amino]-pentanoic acid], the IC50 was found to be 3 nM and the inhibition at 3 µM is 95%.
For `COC(=O)C1CCN(Cc2cccc(-c3cc4c(c(S(=O)(=O)Nc5ccsc5C(=O)N[C@@H](CCCNC(=N)N)C(=O)O)c3)OCC4)c2)CC1` [Compound 7, 1-(3-{7-[2-((S)-1-Carboxy-4-guanidino-butylcarbamoyl)-thiophen-3-ylsulfamoyl]-2,3-dihydro-benzofuran-5-yl}-benzyl)-piperidine-4-carboxylic acid methyl ester], in that order: 5 nM and 94%.
Take `N=C(N)NCCC[C@H](NC(=O)c1sccc1NS(=O)(=O)c1cc(-c2ccccc2CN2CCN(Cc3ccncc3)CC2)cc2c1OCC2)C(=O)O` [Compound 8, (S)-5-Guanidino-2-[(3-{5-[2-(4-pyridin-4-ylmethyl-piperazin-1-ylmethyl)-phenyl]-2,3-dihydro-benzofuran-7-sulfonylamino}-thiophene-2-carbonyl)-amino]-pentanoic acid]: the IC50 turned out to be 1800 nM. In addition, the inhibition at 30 µM (30 μM compound) stood at 90%.
The corresponding values for `N=C(N)NCCC[C@H](NC(=O)c1sccc1NS(=O)(=O)c1cc(-c2ccccc2CNCc2cccnc2)cc2c1OCC2)C(=O)O` [Compound 9, (S)-5-Guanidino-2-({3-[5-(2-{[(pyridin-3-ylmethyl)-amino]-methyl}-phenyl)-2,3-dihydro-benzofuran-7-sulfonylamino]-thiophene-2-carbonyl}-amino)-pentanoic acid] are 3000 nM and 97%.
`N=C(N)NCCC[C@H](NC(=O)c1sccc1NS(=O)(=O)c1cc(-c2ccccc2CN2CCN(c3cccnc3)CC2)cc2c1OCC2)C(=O)O` [Compound 10, (S)-5-Guanidino-2-[(3-{5-[2-(4-pyridin-3-yl-piperazin-1-ylmethyl)-phenyl]-2,3-dihydro-benzofuran-7-sulfonylamino}-thiophene-2-carbonyl)-amino]-pentanoic acid]: the IC50 amounted to 2000 nM. Further, the inhibition at 30 µM (30 μM compound) turned out to be 97%.
For `N=C(N)NCCC[C@H](NC(=O)c1sccc1NS(=O)(=O)c1cc(-c2cccc(CN3CCN(Cc4cccnc4)CC3)c2)cc2c1OCC2)C(=O)O` [Compound 11, (S)-5-Guanidino-2-[(3-{5-[3-(4-pyridin-3-ylmethyl-piperazin-1-ylmethyl)-phenyl]-2,3-dihydro-benzofuran-7-sulfonylamino}-thiophene-2-carbonyl)-amino]-pentanoic acid], in that order: 1500 nM and 98%.
The corresponding values for `N=C(N)NCCC[C@H](NC(=O)c1sccc1NS(=O)(=O)c1cc(-c2cccc(CNCc3cccnc3)c2)cc2c1OCC2)C(=O)O` [Compound 12, (S)-5-Guanidino-2-({3-[5-(3-{[(pyridin-3-ylmethyl)-amino]-methyl}-phenyl)-2,3-dihydro-benzofuran-7-sulfonyl-amino]-thiophene-2-carbonyl}-amino)-pentanoic acid] are 1200 nM and 96%.
The corresponding values for `N=C(N)NCCC[C@H](NC(=O)c1sccc1NS(=O)(=O)c1cc(-c2cccc(CN3CCN(c4cccnc4)CC3)c2)cc2c1OCC2)C(=O)O` [Compound 13, (S)-5-Guanidino-2-[(3-{5-[3-(4-pyridin-3-yl-piperazin-1-ylmethyl)-phenyl]-2,3-dihydro-benzofuran-7-sulfonylamino}-thiophene-2-carbonyl)-amino]-pentanoic acid] are 591 nM and 100%.
Turning to `N=C(N)NCCC[C@H](NC(=O)c1sccc1NS(=O)(=O)c1cc(-c2ccccc2CN2CCN(c3ccccn3)CC2)cc2c1OCC2)C(=O)O` [Compound 14, (S)-5-Guanidino-2-[(3-{5-[2-(4-pyridin-2-yl-piperazin-1-ylmethyl)-phenyl]-2,3-dihydro-benzofuran-7-sulfonylamino}-thiophene-2-carbonyl)-amino]-pentanoic acid], the inhibition at 3 µM was 67%. In addition, the inhibition at 30 µM (30 μM compound) came to 100%.
For `N=C(N)NCCC[C@H](NC(=O)c1sccc1NS(=O)(=O)c1cc(-c2ccccc2CN2CCN(c3ccncc3)CC2)cc2c1OCC2)C(=O)O` [Compound 15, (S)-5-Guanidino-2-[(3-{5-[2-(4-pyridin-4-yl-piperazin-1-ylmethyl)-phenyl]-2,3-dihydro-benzofuran-7-sulfonylamino}-thiophene-2-carbonyl)-amino]-pentanoic acid], in that order: 62% and 97%.
For `N=C(N)NCCC[C@H](NC(=O)c1sccc1NS(=O)(=O)c1cc(-c2ccccc2CN2CCN(Cc3ccccn3)CC2)cc2c1OCC2)C(=O)O` [Compound 16, (S)-5-Guanidino-2-[(3-{5-[2-(4-pyridin-2-ylmethyl-piperazin-1-ylmethyl)-phenyl]-2,3-dihydro-benzofuran-7-sulfonylamino}-thiophene-2-carbonyl)-amino]-pentanoic acid], in that order: 64% and 95%.
For `N=C(N)NCCC[C@H](NC(=O)c1sccc1NS(=O)(=O)c1cc(-c2ccccc2CN2CCN(Cc3ccncc3)CC2)cc2c1OCC2)C(=O)O` [Compound 17, (S)-5-Guanidino-2-[(3-{5-[2-(4-pyridin-4-ylmethyl-piperazin-1-ylmethyl)-phenyl]-2,3-dihydro-benzofuran-7-sulfonylamino}-thiophene-2-carbonyl)-amino]-pentanoic acid], the inhibition at 3 µM was determined as 56%. Besides, for the setting “30 μM compound, 30 µM”, the “Screen (% inhibition at 30 μM)” value was found to be 94%.
As to `N=C(N)NCCC[C@H](NC(=O)c1sccc1NS(=O)(=O)c1cc(-c2ccccc2CNCc2ccccn2)cc2c1OCC2)C(=O)O` [Compound 18, (S)-5-Guanidino-2-({3-[5-(2-{[(pyridin-2-ylmethyl)-amino]-methyl}-phenyl)-2,3-dihydro-benzofuran-7-sulfonylamino]-thiophene-2-carbonyl}-amino)-pentanoic acid], the inhibition at 3 µM came to 70%. For the same molecule, the inhibition at 30 µM (30 μM compound) was found to be 100%.
